According to US20050239758A1, “Hormone treatment of multiple sclerosis” (priority 2004, published 2005):

Experiments:
[1] = tested on: serum anti-estrogen IgE; assay: Competition ELISA: absorption of serum anti-estrogen IgE with specific and non-specific antigens; assay type: binding, human; details: for Absorption of serum IgE antibodies by antigen added to the liquid phase: competition ELISA, result in words; for Percent inhibition of serum anti-estrogen IgE after absorption: absorption with 250 μg/mL antigen, NS = non-significant; for Inhibition of IgE anti-estrogen binding: antigen in liquid phase, range over the samples
Method: (§1) Enzyme-linked immunosorbent assay (ELISA) was used for testing antibodies against estrogen and progesterone in the sera of patients with premenstrual asthma and with control subjects. Different rows of microtiter plates (Costar) were coated either with 100 μl of BSA concentration of 10 μg/mL or 100 μl of estrogen-BSA or progesterone-BSA optimal concentration of 10 μg/mL in 0.1 m carbonate-bicarbonate buffer (pH 9.5). Plates were incubated overnight at 4° C. and then washed three times with […] of Tris-buffered saline (TBS) containing 0.05% Tween 20, pH 7.4. […] Plates were washed with PBS-Tween 20 and then 100 μl of control or patient's serum was added to duplicate wells coated either with BSA alone or with estrogen or progesterone bound to BSA. […] Plates were incubated for 2 h (for IgG and IgM) and overnight (for IgE), and then washed four times with PBS-Tween 20. Alkaline-phosphatase-conjugated goat anti-human IgG, IgM or IgE F(ab′)2 fragment at optimal dilution of 1:700 (IgG); 1:500 (IgM) and 1:250 (IgE) was added to corresponding wells. The plates were then incubated for an additional 2 h at room temperature. After washing five times with TBS-Tween buffer, the enzyme reaction was started by adding 100 μl of para-nitrophenylphosphate in 0.1 mL of diethanolamine buffer (1 mg/ml) containing 1 mM MgCl2 and sodium azide, pH 9.8. The reaction was stopped 45 minutes later with 50 μl of 1 N NaOH. The optical density was read at 405 nm (OD405) with a microtiter reader. […] However, this non-specific O.D. was subtracted from wells coated with estrogen or progesterone bound to BSA.
(§2) For this, microtiter plates were coated with hormones and blocked by the addition of 2% BSA in PBST. 100 μl of serum diluent buffer was added to all wells. […] After a 60-minute incubation, 100 μl serum anti-estrogen or anti-progesterone was added to all wells. […] Results were calculated as a percentage of inhibition in antigen-antibody reaction.
(§3) To examine whether antibodies to estrogen or progesterone are specific or cross-reactive, competition ELISA was performed by adding specific and non-specific antigens in liquid phase and examined prevention of serum antibody binding to the antigen in solid phase. […] This cross-reaction between estrogen and progesterone antibodies may be due to structural similarities between these two hormones.

[2] = tested on: serum anti-estrogen IgG; assay: Competition ELISA: absorption of serum anti-estrogen IgG with specific and non-specific antigens; assay type: binding, human; details: for Absorption of serum IgG antibodies by antigen added to the liquid phase: competition ELISA, result in words; for Percent inhibition of serum anti-estrogen IgG after absorption: absorption with 250 μg/mL antigen, NS = non-significant; for Inhibition of anti-estrogen binding to estrogen (IgG): antigen in liquid phase, range over the samples
Method: as §1, §2, §3

[3] = tested on: multiple sclerosis symptoms; assay: Clinical case: daily sublingual dilute progesterone in a patient with multiple sclerosis; assay type: in vivo, human
Method: An adult human presented with a diagnosis of multiple sclerosis (MS) from a group of neurologists specializing in MS. They had confirmed the diagnosis with magnetic resonance imaging (MRI) scans showing demylination of major nerves. They were evaluated for hormone allergy therapy by assessing their anti-hormone antibodies and found to have elevated levels of anti-progesterone IgG and IgM antibodies. They then received progesterone 1:10 sublingual treatment, daily. Within a month of their initial diagnosis, they rated their symptoms at a 10 on a scale of 1-10, with 10 representing the worst symptoms experienced. A year after diagnosis, but before beginning low dosage hormone therapy, they rated their symptoms at a 5. They then began receiving daily sublingual progesterone (1:10) treatment. They reported an immediate reduction of their symptoms to a 3 or 4. After over a year of therapy, they reported their symptoms to be generally about a 2 with days where they have been a 0 or 1. On one occasion, the subject ran out of drops and, therefore, temporarily discontinued therapy.

bovine serum albumin [BSA]
Absorption of serum IgE antibodies by antigen added to the liquid phase [1]: did not absorb
Absorption of serum IgG antibodies by antigen added to the liquid phase [2]: did not absorb

Progesterone-BSA [Pn]
Percent inhibition of serum anti-estrogen IgE after absorption ([1]; Sample 1): (37%)
Percent inhibition of serum anti-estrogen IgE after absorption ([1]; Sample 2): (41&) %
Percent inhibition of serum anti-estrogen IgE after absorption ([1]; Sample 3): (43%)
Inhibition of IgE anti-estrogen binding [1]: 37-43%
Absorption of serum IgE antibodies by antigen added to the liquid phase [1]: significantly absorbed
Percent inhibition of serum anti-estrogen IgG after absorption ([2]; Sample 1): (52%)
Percent inhibition of serum anti-estrogen IgG after absorption ([2]; Sample 2): (45%)
Percent inhibition of serum anti-estrogen IgG after absorption ([2]; Sample 3): (41%)
Inhibition of anti-estrogen binding to estrogen (IgG) [2]: 41-52%
Absorption of serum IgG antibodies by antigen added to the liquid phase [2]: significantly absorbed

Estrogen-BSA
Percent inhibition of serum anti-estrogen IgE after absorption ([1]; Sample 1): (55%)
Percent inhibition of serum anti-estrogen IgE after absorption ([1]; Sample 2): (54%)
Percent inhibition of serum anti-estrogen IgE after absorption ([1]; Sample 3): (62%)
Inhibition of IgE anti-estrogen binding [1]: 54-62%
Absorption of serum IgE antibodies by antigen added to the liquid phase [1]: significantly absorbed
Percent inhibition of serum anti-estrogen IgG after absorption ([2]; Sample 1): (67%)
Percent inhibition of serum anti-estrogen IgG after absorption ([2]; Sample 2): (59%)
Percent inhibition of serum anti-estrogen IgG after absorption ([2]; Sample 3): (52%)
Inhibition of anti-estrogen binding to estrogen (IgG) [2]: 52-67%
Absorption of serum IgG antibodies by antigen added to the liquid phase [2]: significantly absorbed

CC(=O)[C@H]1CC[C@H]2[C@@H]3CCC4=CC(=O)CC[C@]4(C)[C@H]3CC[C@]12C [progesterone]
Symptoms on temporary discontinuation of therapy ([3]; ran out of drops, over a period of several days until therapy restarted): steadily worsened
Self-rated symptoms, generally, after over a year of therapy ([3]; scale of 1-10, 10 = worst, progesterone 1:10 sublingual daily, rated 5 before therapy): ~2

B1: myelin basic protein (protein, UniProt P02686 1-304, looked up)
Myelin basic protein: MGNHAGKRELNAEKASTNSETNRGESEKKRNLGELSRTTSEDNEVFGEADANQNNGTSSQDTAVTDSKRTADPKNAWQDAHPADPGSRPHLIRLFSRDAPGREDNTFKDRPSESDELQTIQEDSAATSESLDVMASQKRPSQRHGSKYLATASTMDHARHGFLPRHRDTGILDSIGRFFGGDRGAPKRGSGKDSHHPARTAHYGSLPQKSHGRTQDENPVVHFFKNIVTPRTPPPSQGKGRGLSLSRFSWGAEGQRPGFGYGGRASDYKSAHKGFKGVDAQGTLSKIFKLGGRDSRSGSPMARR
Absorption of serum IgE antibodies by antigen added to the liquid phase [1]: did not absorb
Absorption of serum IgG antibodies by antigen added to the liquid phase [2]: did not absorb
